Data published in PubChem BioAssay (NCI).
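In this assay, cells in 96-well plates receive the compound at five concentrations for 48 hours. Endpoints are linearly interpolated between the surrounding concentrations. GI50 is the concentration that inhibits growth by half. TGI: total growth inhibition.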

Columns and labels:
Experiment in all cases: NCI-60 cell line screen, 48 h
[1] = tested on: UO-31 renal
[2] = tested on: SF-295 CNS
[3] = tested on: KM12 colon
[4] = tested on: NCI-H226 lung
[5] = tested on: CAKI-1 renal
[6] = tested on: M14 melanoma
[7] = tested on: SN12C renal
[8] = tested on: NCI-H460 lung
[9] = tested on: DU-145 prostate
[10] = tested on: COLO 205 colon
[11] = tested on: HOP-62 NSCLC
[12] = tested on: ACHN renal
[13] = tested on: RPMI-8226 leukemia
[14] = tested on: OVCAR-4 ovarian
[15] = tested on: A549 NSCLC
[16] = tested on: HT29 colon
[17] = tested on: HCT-116 colon
[18] = tested on: SK-MEL-2 melanoma
[19] = tested on: NCI-H23 lung
[20] = tested on: SF-539 CNS
[21] = tested on: RXF 393 renal
[22] = tested on: SW-620 colon
[23] = tested on: HOP-92 NSCLC
[24] = tested on: MCF7 breast
[25] = tested on: CCRF-CEM leukemia
[26] = tested on: PC-3 prostate
[27] = tested on: 786-0 renal
[28] = tested on: TK-10 renal
[29] = tested on: SK-MEL-28 melanoma
[30] = tested on: MOLT-4 leukemia
[31] = tested on: HS 578T breast
[32] = tested on: SF-268 CNS
[33] = tested on: OVCAR-8 ovarian
[34] = tested on: U251 CNS
[35] = tested on: EKVX NSCLC
[36] = tested on: HCT-15 colon
[37] = tested on: SK-OV-3 ovarian
[38] = tested on: MDA-MB-231 breast
[39] = tested on: HL-60(TB) leukemia
[40] = tested on: OVCAR-5 ovarian
[41] = tested on: HCC-2998 colon
[42] = tested on: NCI/ADR-RES ovarian
[43] = tested on: SNB-75 CNS
[44] = tested on: NCI-H522 lung
[45] = tested on: A498 renal
[46] = tested on: MALME-3M melanoma
[47] = tested on: SNB-19 CNS
[48] = tested on: SK-MEL-5 melanoma

COc1ccc(-c2nc(Nc3ccc(-c4nc5ccccc5[nH]4)cc3)nc(N3CCOCC3)n2)cc1
GI50 [1]: 2.16 µM
TGI [1]: 5.64 µM
GI50 [2]: 1.59 µM
TGI [2]: 4.7 µM
GI50 [3]: 2.06 µM
TGI [3]: 5.69 µM
GI50 [4]: 3.32 µM
TGI [4]: 8.6 µM
GI50 [5]: 1.98 µM
TGI [5]: 5.02 µM
GI50 [6]: 1.94 µM
TGI [6]: 4.03 µM
GI50 [7]: 3.19 µM
TGI [7]: 23 µM
GI50 [8]: 2.48 µM
TGI [8]: 6.51 µM
GI50 [9]: 4.54 µM
TGI [9]: > 100 µM
GI50 [10]: 1.92 µM
TGI [10]: 4.21 µM
GI50 [11]: 2.11 µM
TGI [11]: 5.3 µM
GI50 [12]: 2.55 µM
TGI [12]: > 100 µM
GI50 [13]: 1.93 µM
TGI [13]: 6.54 µM
GI50 [14]: 3.13 µM
TGI [14]: 13 µM
GI50 [15]: 3.24 µM
TGI [15]: > 100 µM
GI50 [16]: 2.23 µM
TGI [16]: 5.39 µM
GI50 [17]: 1.9 µM
TGI [17]: 3.54 µM
GI50 [18]: 2.33 µM
TGI [18]: 5.49 µM
GI50 [19]: 2.57 µM
TGI [19]: 9.9 µM
GI50 [20]: 1.63 µM
TGI [20]: 3.72 µM
GI50 [21]: 0.459 µM
TGI [21]: 2.51 µM
GI50 [22]: 2.19 µM
TGI [22]: 4.8 µM
GI50 [23]: 1.8 µM
TGI [23]: 3.74 µM
GI50 [24]: 2.59 µM
TGI [24]: > 100 µM
GI50 [25]: 3.11 µM
TGI [25]: > 100 µM
GI50 [26]: 2.39 µM
TGI [26]: 6.66 µM
GI50 [27]: 1.44 µM
TGI [27]: 3.23 µM
GI50 [28]: 2.91 µM
TGI [28]: 8.54 µM
GI50 [29]: 1.8 µM
TGI [29]: 4.28 µM
GI50 [30]: 2.15 µM
TGI [30]: 6.13 µM
GI50 [31]: 1.76 µM
TGI [31]: 6.96 µM
GI50 [32]: 2.82 µM
TGI [32]: 26.5 µM
GI50 [33]: 3.26 µM
TGI [33]: 10.8 µM
GI50 [34]: 2.04 µM
TGI [34]: 13.6 µM
GI50 [35]: 2.6 µM
TGI [35]: > 100 µM
GI50 [36]: 1.67 µM
TGI [36]: 4.78 µM
GI50 [37]: 2.37 µM
TGI [37]: 5.53 µM
GI50 [38]: 1.63 µM
TGI [38]: 4.76 µM
GI50 [39]: 1.94 µM
TGI [39]: 5.67 µM
GI50 [40]: 2.7 µM
TGI [40]: 8.9 µM
GI50 [41]: 3.09 µM
TGI [41]: > 100 µM
GI50 [42]: 3.18 µM
TGI [42]: 26.7 µM
GI50 [43]: 1.8 µM
TGI [43]: 10.5 µM
GI50 [44]: 2.36 µM
TGI [44]: 5.85 µM
GI50 [45]: 1.52 µM
TGI [45]: 3.57 µM
GI50 [46]: 2.05 µM
TGI [46]: 3.95 µM
GI50 [47]: 3.49 µM
TGI [47]: > 100 µM
GI50 [48]: 1.79 µM
TGI [48]: 3.36 µM
